Reference: PMC12615485, “New dengue virus inhibitors targeting NS3-NS5 interaction identified by in silico screening” (Frontiers in Microbiology, 2025)
Where two headings read alike, the source gives them in different places.

What was measured:
DENV-2 NGC strain = assay: Plaque reduction assay (PRA) in Vero cells; format: cell-based; conditions: for EC50: PRA in Vero cells, read-out: Antiviral activity EC50; for SI (selectivity index): ratio between CC50 and EC50
MTT cytotoxicity assay = conditions: African green monkey, Vero cells
[1] = biological target: NS3-NS5 interaction (NS3 f.l. binding to coated 6His-NS5_270–900) (Dengue virus type 2, UniProt P14340); assay: ELISA-based NS3-NS5 interaction assay; parameters: species or system DENV-2; conditions: for inhibition at 100 µM: fixed concentration of 100 μM, compared with DMSO control; for IC50: read-out: In vitro activity IC50; for reduction of NS3-NS5 interaction: at the tested concentrations
Experimental: Nunc Maxisorp microplates (Thermo Fisher Scientific) were coated with 400 ng/well of 6His-NS5_270–900, or GST protein as a control, in PBS for 3 h at 37 °C and then blocked with 5% (wt/v) bovine serum albumin (BSA, Merck Life Science) in PBS overnight at 4 °C. Blocked wells were incubated at room temperature (RT) for 2 h with increasing amounts of NS3 f.l. or GST–NS3_172–618. 6His-NS5_270–900-coated plates were also incubated with increasing concentration of GST, as a control. After washing with PBS containing 0.3% Tween 20 (Fisher Scientific, Waltham, MA, United States), the NS3-NS5 interaction was detected by incubating the plates with the anti-NS3 monoclonal antibody (GT2811 clone, Genetex, Irvine, CA, United States) diluted 1:6,000 in PBS + 2% (v/v) FBS (Thermo Fisher Scientific) for 1 h at RT. The unbound primary antibody was removed by further washes with PBS + 0.3% Tween 20 and the secondary goat anti-mouse HRP-conjugated antibody (GenScript Biotech) at a dilution of 1:8,000 in PBS + 2% FBS was then added. After incubation for 1 h at RT and following washes, the colorimetric substrate 3,3′,5,5′-tetramethylbenzidine (TMB, SeraCare Life Sciences, Milford, MA, United States) was added to each well and absorbance was read at 450 nm by an ELISA plate reader (Tecan Infinite 200 PRO, Mannedorf, Switzerland).
To test the inhibitory effect of compounds on NS3-NS5 interaction, 6His-NS5_270–900-coated wells were incubated with a fixed amount of NS3 f.l. (200 ng) along with increasing concentrations of test compounds or DMSO as a control. To exclude non-specific inhibition of compounds due to colloidal aggregation, the inhibitory activities of compounds were tested in the presence or the absence of 0.002% Triton X-100 (Fisher Scientific), a condition which reverses and prevents the colloidal formation of organic molecules ([McGovern et al., 2003]). All the compound concentrations were tested at least in duplicate.

[2] = Dengue virus, DENV2, Vero, selected hits, 50% inhibition of viral plaque formation, DENV-2
[3] = selected hits, concentration that decreased the NS3-NS5 binding by 50% in ELISA
[4] = analogues of hit 3, in-house synthesized hit 3 as control, 50% inhibition of NS3-NS5 binding in ELISA

Which results are given for `Cc1ccc(C(=O)Nc2cc(-c3cccc(F)c3F)n[nH]2)c(=O)[nH]1` [Hit 4]?
EC50 (DENV-2 NGC strain; [2]): > 10 µM; SI (selectivity index) (DENV-2 NGC strain; selected hits): 1; CC50 at 72 h (MTT cytotoxicity assay): 12.7 ± 4 µM; inhibition at 100 µM [1]: ≥ 50%; IC50 [1, 3]: 18.7 ± 2.1 µM

For `CC(C)(C)c1ccc(NC(=S)NNC(=O)c2ccccc2O)cc1` [Compound 76], which IC50 [1, 4] is on record?
The IC50 was 6.3 ± 2.2 µM.

With `COc1ccccc1C(=O)NNC(=S)Nc1ccc(C)cc1` [Compound 56] as the molecule, how does the IC50 [1, 4] read?
Its IC50 is 21.2 ± 3.4 µM.

For `Cc1ccc(NC(=S)NNC(=O)c2cccc(O)c2)cc1` [Compound 61], which IC50 [1, 4] is on record?
The IC50 was > 200 µM.

And the “reduction of NS3-NS5 interaction” value [1]?
Its value is < 50%.

Which IC50 [1, 4] does the source give for `Cc1ccc(NC(=S)NNC(=O)c2ccc(O)cc2O)cc1` [Compound 63] here?
Its IC50 is 172 ± 31 µM.

With `CN(C)c1ccc(NC(=S)NNC(=O)c2cccs2)cc1` [Compound 70] as the molecule, how does the IC50 [1, 4] read?
The IC50 was 25.3 ± 5.4 µM.

Which IC50 [1, 4] does the source give for `CN(C)c1ccc(NC(=S)NNC(=O)c2ccccc2O)cc1` [Compound 66] here?
The IC50 was 12.5 ± 4.1 µM.

Which IC50 [1, 4] does the source give for `Cc1ccc(NC(=S)NNC(=O)c2cccs2)cc1` [Compound 65] here?
The IC50 was 64.9 ± 19.5 µM.

Which IC50 [1, 4] does the source give for `Cc1ccc(Nc2nc(-c3ccccc3O)cs2)cc1` [Compound 78] here?
Its IC50 is > 200 µM.

What about the “reduction of NS3-NS5 interaction” value [1] of the same molecule?
Its value is < 50%.

What does the source list for `O=C(NCc1nc2ccccc2[nH]1)c1ccc2[nH]nnc2c1` [Hit 1]?
EC50 (DENV-2 NGC strain; [2]): > 100 µM; SI (selectivity index) (DENV-2 NGC strain; selected hits): >3; CC50 at 72 h (MTT cytotoxicity assay): > 250 µM; inhibition at 100 µM [1]: ≥ 50%; IC50 [1, 3]: 85.9 ± 14.5 µM

Which EC50 (DENV-2 NGC strain; [2]) does the source give for `N#Cc1nc2c(-c3nc4ccccc4[nH]3)c(N)n(Cc3ccco3)c2nc1C#N` [Hit 47] here?
Its EC50 is 53.5 ± 6.9 µM.

What about the “SI (selectivity index)” value (DENV-2 NGC strain; selected hits) of the same molecule?
The value was >5.

And the CC50 at 72 h (MTT cytotoxicity assay)?
Its CC50 at 72 h is > 250 µM.

And the inhibition at 100 µM [1]?
Its inhibition at 100 µM is ≥ 50%.

And the IC50 [1, 3]?
The IC50 was 16.9 ± 2.5 µM.

Which “inhibitory effect on NS3-NS5 interaction” value ([1]; up to 480 μM) does the source give for `CC(C)C[C@H](NC(=O)[C@H](C)NC(=O)[C@H](CC(C)C)NC(=O)[C@@H](NC(=O)[C@H](CCC(N)=O)NC(=O)[C@@H](NC(=O)[C@H](CCC(=O)O)NC(=O)[C@H](CCC(=O)O)NC(=O)CNC(=O)[C@H](CCC(=O)O)NC(=O)[C@H](CCCCN)NC(=O)[C@H](Cc1c[nH]c2ccccc12)NC(=O)[C@H](CCC(=O)O)NC(=O)CNC(=O)[C@@H](N)CCC(=O)O)C(C)C)C(C)C)C(=O)O` [NS3_86–100 peptide, reference compound] here?
Its value is “no inhibitory effect”.

Which IC50 [1, 4] does the source give for `Cc1ccc(NC(=S)NNC(=O)c2ccccc2)cc1` [Compound 57] here?
Its IC50 is 55.6 ± 22.7 µM.

With `Cc1ccc(NC(=S)NNC(=O)c2ccccc2C)cc1` [Compound 59] as the molecule, how does the IC50 [1, 4] read?
Its IC50 is 29 ± 6.9 µM.

What does the source list for `COc1ccc(NC(=S)NNC(=O)c2ccccc2O)cc1` [Compound 74]?
IC50 [1, 4]: > 200 µM; reduction of NS3-NS5 interaction [1]: < 50%

For `Cc1ccc(NC(=S)NNC(=O)c2ccc(C(C)(C)C)cc2)cc1` [Compound 72], which EC50 (DENV-2 NGC strain; best analogues of hit 3, in-house synthesized hit 3 as control, NGC strain) is on record?
Its EC50 is 2.8 ± 1.9 µM.

And the CC50 (Vero cells)?
The CC50 was 211 ± 20 µM.

With `Cc1ccc(NC(=S)NNC(=O)c2ccccc2F)cc1` [Compound 58] as the molecule, how does the IC50 [1, 4] read?
Its IC50 is 21.3 ± 7.9 µM.

With `Cc1ccc(NC(=S)NNC(=O)c2ccc(C)cc2)cc1` [Compound 60] as the molecule, how does the IC50 [1, 4] read?
The IC50 was 149 ± 21 µM.

With `Cc1ccc(NC(=O)NNC(=O)c2ccccc2O)cc1` [Compound 79] as the molecule, how does the IC50 [1, 4] read?
Its IC50 is 13.9 ± 6.5 µM.

What does the source list for `O=C(CCc1ccccn1)Nc1ccc2[nH]nnc2c1` [Hit 44]?
EC50 (DENV-2 NGC strain; [2]): 97.4 ± 12.6 µM; SI (selectivity index) (DENV-2 NGC strain; selected hits): >1; CC50 at 72 h (MTT cytotoxicity assay): > 100 µM; inhibition at 100 µM [1]: ≥ 50%; IC50 [1, 3]: 78.5 ± 16.4 µM
